Data reported in ChEMBL document CHEMBL3045156, “Synthesis and fungicidal evaluation of 2-arylphenyl ether-3-(1H-1,2,4-triazol-1-yl)propan-2-ol derivatives” (2009).

Key:
Format in all cases: functional
Details in all cases: read-out: GI
Fusarium graminearum [1] = assay: Fungicidal activity against Fusarium graminearum assessed as growth inhibition at 50 ug/mL
Fusarium oxysporum [2] = assay: Fungicidal activity against Fusarium oxysporum assessed as growth inhibition at 50 ug/mL
Alternaria solani [3] = assay: Fungicidal activity against Alternaria solani assessed as growth inhibition at 50 ug/mL
Mycosphaerella arachidis [4] = assay: Fungicidal activity against Mycosphaerella arachidis assessed as growth inhibition at 50 ug/mL
[5] = tested on: Botryosphaeria berengeriana; assay: Fungicidal activity against Botryosphaeria berengeriana assessed as growth inhibition at 50 ug/mL
Fusarium graminearum [6] = assay: Fungicidal activity against Fusarium graminearum assessed as growth inhibition at 1 ug/mL
Mycosphaerella arachidis [7] = assay: Fungicidal activity against Mycosphaerella arachidis assessed as growth inhibition at 1 ug/mL
[8] = tested on: Botryosphaeria berengeriana; assay: Fungicidal activity against Botryosphaeria berengeriana assessed as growth inhibition at 1 ug/mL
Alternaria solani [9] = assay: Fungicidal activity against Alternaria solani assessed as growth inhibition at 1 ug/mL
Fusarium oxysporum [10] = assay: Fungicidal activity against Fusarium oxysporum assessed as growth inhibition at 1 ug/mL
Mycosphaerella arachidis [11] = assay: Fungicidal activity against Mycosphaerella arachidis assessed as growth inhibition at 5 ug/mL
Alternaria solani [12] = assay: Fungicidal activity against Alternaria solani assessed as growth inhibition at 5 ug/mL
[13] = tested on: Botryosphaeria berengeriana; assay: Fungicidal activity against Botryosphaeria berengeriana assessed as growth inhibition at 5 ug/mL
Fusarium oxysporum [14] = assay: Fungicidal activity against Fusarium oxysporum assessed as growth inhibition at 5 ug/mL
Fusarium graminearum [15] = assay: Fungicidal activity against Fusarium graminearum assessed as growth inhibition at 5 ug/mL

Compound	inhibition of growth at 50 µg/mL (Fusarium graminearum [1])	inhibition of growth at 50 µg/mL (Fusarium oxysporum [2])	inhibition of growth at 50 µg/mL (Alternaria solani [3])	inhibition of growth at 50 µg/mL (Mycosphaerella arachidis [4])	inhibition of growth at 50 µg/mL [5]	inhibition of growth at 1 µg/mL (Fusarium graminearum [6])	inhibition of growth at 1 µg/mL (Mycosphaerella arachidis [7])	inhibition of growth at 1 µg/mL [8]	inhibition of growth at 1 µg/mL (Alternaria solani [9])	inhibition of growth at 1 µg/mL (Fusarium oxysporum [10])	inhibition of growth at 5 µg/mL (Mycosphaerella arachidis [11])	inhibition of growth at 5 µg/mL (Alternaria solani [12])	inhibition of growth at 5 µg/mL [13]	inhibition of growth at 5 µg/mL (Fusarium oxysporum [14])	inhibition of growth at 5 µg/mL (Fusarium graminearum [15])
CCNCC(O)(Cn1cncn1)c1ccc(Oc2ccc(Cl)cc2)cc1Cl (stereo not given)	56.8%	86.9%	63.8%	61.4%	75.4%	–	–	–	–	–	–	–	–	–	–
CNCC(O)(Cn1cncn1)c1ccc(Oc2ccc(Cl)cc2)cc1Cl (stereo not given)	98%	100%	99%	99%	100%	72.5%	57.2%	96%	50.3%	0%	–	–	–	–	–
COCC(O)(Cn1cncn1)c1ccc(Oc2ccc(Cl)cc2)cc1Cl (stereo not given)	98.7%	100%	100%	99.1%	100%	63.2%	78.6%	99.2%	98.7%	89.9%	–	–	–	–	–
OC(CNC1CCCCC1)(Cn1cncn1)c1ccc(Oc2ccc(Cl)cc2)cc1Cl (stereo not given)	47.5%	78.9%	87.3%	75.2%	100%	–	–	–	–	–	–	–	–	–	–
CSCC(O)(Cn1cncn1)c1ccc(Oc2ccc(Cl)cc2)cc1Cl (stereo not given)	37.2%	78.9%	83.7%	82.4%	100%	–	–	–	–	–	–	–	–	–	–
OCCNCC(O)(Cn1cncn1)c1ccc(Oc2ccc(Cl)cc2)cc1Cl (stereo not given)	37.3%	100%	98.5%	72.2%	97.7%	–	–	–	–	–	–	–	–	–	–
CONCC(O)(Cn1cncn1)c1ccc(Oc2ccc(Cl)cc2)cc1Cl (stereo not given)	97.3%	100%	100%	98.4%	100%	18.2%	55.3%	84.2%	61.3%	0%	–	–	–	–	–
COCC(O)(Cn1cncn1)c1ccc(Oc2ccc(F)cc2)cc1Cl (stereo not given)	100%	100%	100%	100%	100%	57.2%	76.2%	89.5%	96.9%	82.7%	–	–	–	–	–
CNCC(O)(Cn1cncn1)c1ccc(Oc2ccc(F)cc2)cc1Cl (stereo not given)	100%	100%	100%	100%	100%	67.2%	72.1%	74.6%	86.7%	68.7%	–	–	–	–	–
OC(Cn1ccnc1)(Cn1cncn1)c1ccc(Oc2ccc(F)cc2)cc1Cl (stereo not given)	84.3%	57.1%	73.2%	100%	87.9%	–	–	–	–	–	–	–	–	–	–
OC(Cn1cncn1)(Cn1cncn1)c1ccc(Oc2ccc(F)cc2)cc1Cl	95%	100%	97.5%	100%	95.9%	21.8%	39.5%	49.3%	75%	90%	–	–	–	–	–
CC(O)(Cn1cncn1)c1ccc(Oc2ccc(Cl)cc2)cc1Cl (stereo not given)	100%	85.3%	78.2%	100%	100%	–	–	–	–	–	–	–	–	–	–
CC(O)(Cn1cncn1)c1ccc(Oc2ccc(F)cc2)cc1Cl (stereo not given)	98%	99%	100%	99%	100%	0%	37.5%	48.7%	20%	17.9%	–	–	–	–	–
OC(/C=C/c1ccccc1)(Cn1cncn1)c1ccc(Oc2ccc(Cl)cc2)cc1Cl (stereo not given)	64.3%	68.7%	81.2%	100%	67.9%	–	–	–	–	–	–	–	–	–	–
OC(/C=C/c1ccc(Cl)cc1)(Cn1cncn1)c1ccc(Oc2ccc(Cl)cc2)cc1Cl (stereo not given)	77.2%	57.1%	76.8%	95%	64.1%	–	–	–	–	–	–	–	–	–	–
OC(/C=C/c1ccc(Cl)cc1Cl)(Cn1cncn1)c1ccc(Oc2ccc(Cl)cc2)cc1Cl (stereo not given)	37.2%	50.9%	54.4%	97.8%	58.7%	–	–	–	–	–	–	–	–	–	–
OC(/C=C/c1c(Cl)cccc1Cl)(Cn1cncn1)c1ccc(Oc2ccc(Cl)cc2)cc1Cl (stereo not given)	50.3%	51.8%	60.7%	92.4%	79.3%	–	–	–	–	–	–	–	–	–	–
Cc1ccc(/C=C/C(O)(Cn2cncn2)c2ccc(Oc3ccc(Cl)cc3)cc2Cl)cc1 (stereo not given)	51.8%	60.2%	63.2%	95%	59.3%	–	–	–	–	–	–	–	–	–	–
COc1ccc(/C=C/C(O)(Cn2cncn2)c2ccc(Oc3ccc(Cl)cc3)cc2Cl)cc1 (stereo not given)	61.4%	55.4%	55%	91.3%	64.5%	–	–	–	–	–	–	–	–	–	–
OC(/C=C/c1ccc(Cl)c(Cl)c1)(Cn1cncn1)c1ccc(Oc2ccc(Cl)cc2)cc1Cl (stereo not given)	53.6%	57.1%	66.7%	100%	64.6%	–	–	–	–	–	–	–	–	–	–
OC(/C=C/c1ccccc1F)(Cn1cncn1)c1ccc(Oc2ccc(Cl)cc2)cc1Cl (stereo not given)	61.4%	65.9%	55%	99.3%	52.1%	–	–	–	–	–	–	–	–	–	–
OC(Cn1cncn1)(Cn1cncn1)c1ccc(Oc2ccc(Cl)cc2)cc1Cl	100%	99%	99%	100%	100%	82.6%	88.1%	90.3%	58.6%	62.5%	100%	84.2%	91%	80.9%	100%
OC(Cn1ccnc1)(Cn1cncn1)c1ccc(Oc2ccc(Cl)cc2)cc1Cl (stereo not given)	71.4%	95%	99%	100%	99%	–	–	–	–	–	–	–	–	–	–
OC(CN1CCOCC1)(Cn1cncn1)c1ccc(Oc2ccc(Cl)cc2)cc1Cl (stereo not given)	78.3%	34.4%	55.2%	60%	65.2%	–	–	–	–	–	–	–	–	–	–
OC(Cn1cncn1)(Cn1nnc2ccccc21)c1ccc(Oc2ccc(Cl)cc2)cc1Cl (stereo not given)	45.4%	48.7%	53.3%	62.7%	55.6%	–	–	–	–	–	–	–	–	–	–
OCC(O)(Cn1cncn1)c1ccc(Oc2ccc(Cl)cc2)cc1Cl (stereo not given)	99%	77.1%	99%	100%	99%	–	–	–	–	–	–	–	–	–	–
CN(C)CC(O)(Cn1cncn1)c1ccc(Oc2ccc(Cl)cc2)cc1Cl (stereo not given)	96.9%	100%	99.1%	97.2%	100%	4.2%	0%	27.7%	18.6%	0%	–	–	–	–	–
CC1COC(Cn2cncn2)(c2ccc(Oc3ccc(Cl)cc3)cc2Cl)O1 (stereo not given) [DIFENOCONAZOLE]	100%	99.9%	99.2%	100%	100%	73.9%	56.7%	69.7%	95%	53.1%	–	–	–	–	–
CC(C)(C)C(O)(CCc1ccc(Cl)cc1)Cn1cncn1 (stereo not given) [TEBUCONAZOLE]	100%	100%	100%	100%	100%	86.9%	91%	68.2%	65.5%	65.6%	–	–	–	–	–
